From patent publication US20230348779A1, “FLUORESCENT COMPOUND AND FLUORESCENTLY LABELED BIOLOGICAL SUBSTANCE USING THE SAME” (FUJIFILM Corporation, priority 2021, published 2023) come the findings set out here.

Values after ≈ are worked out from the molar mass of the structure shown.

Holding throughout (format): physicochemical
Data set [1] is described as follows: Evaluation of water solubility. As to conditions: PBS pH 7.4, 1% DMSO, 200 μM if completely dissolved, filtrate concentration by UHPLC; for solubility at 30 min: PBS pH 7.4 with 1% DMSO, aqueous buffer, kinetic from dmso stock. The procedure:
5 μL of a DMSO solution having a concentration of 20 mM of the above compound (hereinafter, referred to as a sample) and 495 μL of PBS having a pH of 7.4 were added and mixed in a 1.5 mL Eppendorf tube and stirred with a multi-shaker MS300 (product name, AS ONE Corporation) at 2,000 rpm for 30 minutes. The obtained mixed solution was allowed to be left for 60 minutes with light shielding and then subjected to centrifugal precipitation (12,000 rpm, 5 minutes). For the filtrate filtered using a filter having a pore diameter of […], the sample concentration was measured with Nexera UHPLC [product name, manufactured by Shimadzu Corporation, column: Shim-pack XR-ODSII] (the sample concentration is 200 μM in a case where the sample is completely dissolved) and evaluated based on the following evaluation standards.
Regarding the water solubility, a high evaluation rank is highly preferable since the hydrophilicity is high, and in the present test, it is preferable that the water solubility satisfies the evaluation rank “C” or higher from the viewpoint of practicality as the fluorescent compound.
—Evaluation Standards for Water Solubility— • A: 100 μM or more • B: 10 μM or more and less than 100 μM • C: 1 μM or more and less than 10 μM • D: Less than 1 μM, or water solubility is low and thus concentration cannot be measured.

A short description of data set [2]: Evaluation of light resistance. As to conditions: PBS pH 7.4, xenon lamp 22 mW/cm^2, exposure time until absorbance at absorption peak decreases by 20%. Here is the method:
The compound synthesized above was dissolved in a PBS solution (pH 7.4) so that the absorbance at the absorption peak wavelength was 0.095 to 0.105. In a state where this solution was exposed using a merry-go-round type light irradiator (xenon lamp UXL-500D-O manufactured by Ushio Inc., HA-50 filter, Y44 filter, exposure intensity: 22 mW/cm^2 (in terms of 500 nm)), the absorbance at the absorption peak wavelength of each compound was measured over time with a spectrometer (Agilent 8453, manufactured by Agilent Technologies, Inc.). The absorbance at the absorption peak wavelength before light exposure was set to 100% and the light exposure time until the absorbance at this absorption peak wavelength decreases by 20% (the absorbance at the absorption peak wavelength reaches 80%) was measured. The results were evaluated based on the following evaluation standards.
A high evaluation rank is highly preferable since stability is kept for a long time, and in the present test, it is preferable that the light resistance satisfies the evaluation rank “B” or higher from the viewpoint of practicality as the fluorescent compound.
—Evaluation Standards for Light Resistance— • A: 100 hours or more • B: 50 hours or more and less than 100 hours • C: 25 hours or more and less than 50 hours • D: 2 hours or more and less than 25 hours • E: Less than 2 hours • F: Not evaluable due to low water solubility

Data set [3] is described as follows: Evaluation of fluorescence quantum yield. As to conditions: PBS solution (pH 7.4). Here is the method: A PBS solution (pH 7.4) of the above compound was evaluated according to the method described in the following reference document.
“A Guide to Recording Fluorescence Quantum Yields” (a HORIBA Scientific document, available from https://www.horiba.com/fileadmin/uploads/Scientific/Documents/Fluorescence/quantumyields trad.pdf)
Regarding the fluorescence quantum yield, a high evaluation rank is highly preferable since the fluorescence quantum yield is excellent, and in the present test, it is preferable that the fluorescence quantum yield satisfies the evaluation rank “C” or higher from the viewpoint of practicality as the fluorescent compound.
—Evaluation Standards for Fluorescence Quantum Yield— • A: 0.5 or more • B: 0.3 or more and less than 0.5 • C: 0.1 or more and less than 0.3 • D: less than 0.1 • E: not evaluable due to low water solubility

Data set [4] can be described thus: Evaluation of maximum molar absorption coefficient. As to conditions: PBS solution (pH 7.4). Here is the method: A PBS solution (pH 7.4) of the above compound was evaluated according to the method described in the following reference document. The unit of the maximum molar absorption coefficient in the following evaluation standard is mol^−1 Lcm^−1.
“TECH TIP #6 Extinction Coefficients” (a document from Thermo Scientific, Inc., available from https://assets.thermofisher.com/TFS-Assets/LSG/Application-Notes/TR0006-Extinction-coeffi cients.pdf)
Regarding the maximum molar absorption coefficient, a high evaluation rank is highly preferable since the maximum molar absorption coefficient is excellent, and in the present test, it is preferable that the maximum molar absorption coefficient satisfies the evaluation rank “C” or higher from the viewpoint of practicality as the fluorescent compound.
—Evaluation Standard for Maximum Molar Absorption Coefficient— • A: 100,000 or more • B: 50,000 or more and less than 100,000 • C: 10,000 or more and less than 50,000 • D: less than 10,000 • E: not evaluable due to low water solubility

The compound `C=C[Si]1(C)C2=CC(=[N+](C)C)C=CC2=C(c2ccc(C(=O)[O-])cc2F)c2ccc(N(C)C)cc21` (stereo not shown) [Compound (2)] came in with a solubility at 30 min in data set [1] of 1 to 10 µM (≈ 0.459 to 4.59 µg/mL). Besides, the Light resistance result in data set [2] was “A (100 hours or more)”. Moreover, in data set [3], the Fluorescence quantum yield entry was “B (0.3 or more and less than 0.5)”. The “Maximum molar absorption coefficient” value in data set [4] is “A (100,000 or more)”.
`C=C[Si]1(C)C2=CC(=[N+](C)C)C=CC2=C(c2c(OC)cc(C(=O)[O-])cc2OC)c2ccc(N(C)C)cc21` (stereo not shown) [Compound (4)] showed a solubility at 30 min in data set [1] of 1 to 10 µM (≈ 0.501 to 5.01 µg/mL). Further, the Light resistance entry in data set [2] is “A (100 hours or more)”. Also, in data set [3], the Fluorescence quantum yield entry was “B (0.3 or more and less than 0.5)”. Moreover, in data set [4], the “Maximum molar absorption coefficient” value is given as “A (100,000 or more)”.
`C=C[Si]1(C)C2=CC(=[N+](C)C)C=CC2=C(c2sc(C(=O)[O-])cc2C)c2ccc(N(C)C)cc21` (stereo not shown) [Compound (5)] displayed a solubility at 30 min in data set [1] of 1 to 10 µM (≈ 0.461 to 4.61 µg/mL). The Light resistance entry in data set [2] is reported as “A (100 hours or more)”. Moreover, the Fluorescence quantum yield result in data set [3] is “D (less than 0.1)”. Also, the “Maximum molar absorption coefficient” value in data set [4] is “A (100,000 or more)”.
With `C=C[Si]1(C)C2=CC(=[N+]3CCS(=O)(=O)CC3)C=CC2=C(c2c(F)cc(C(=O)[O-])cc2F)c2ccc(N3CCS(=O)(=O)CC3)cc21` (stereo not shown) [Compound (6)], the solubility at 30 min in data set [1] fell in the range of 1 to 10 µM (≈ 0.657 to 6.57 µg/mL). In addition, the Light resistance entry in data set [2] is given as “A (100 hours or more)”. In data set [3], the Fluorescence quantum yield entry is “B (0.3 or more and less than 0.5)”; the “Fluorescence quantum yield (comparison in words)” value is on record as “exhibits a better fluorescence quantum yield as compared with the compound (1)”. Also, the “Maximum molar absorption coefficient” value in data set [4] is reported as “A (100,000 or more)”.
Consider `C=C[Si]1(C)C2=C/C(=N/C)C=CC2=C(c2c(F)cc(C(=O)O)cc2F)c2ccc(NC)cc21` (stereo not shown) [Compound (7)], for which the solubility at 30 min in data set [1] is 1 to 10 µM (≈ 0.449 to 4.49 µg/mL). Moreover, the Light resistance entry in data set [2] is “A (100 hours or more)”. Also, in data set [3], the Fluorescence quantum yield result was “B (0.3 or more and less than 0.5)”. Also, in data set [4], the “Maximum molar absorption coefficient” value is “A (100,000 or more)”.
For `C=C[Si]1(C)C2=C/C(=N/C)C=CC2=C(c2sc(C(=O)O)cc2C)c2ccc(NC)cc21` (stereo not shown) [Compound (8)], the solubility at 30 min in data set [1] was in the range of 1 to 10 µM (≈ 0.433 to 4.33 µg/mL). Moreover, in data set [2], the Light resistance result was “A (100 hours or more)”. In addition, in data set [3], the Fluorescence quantum yield entry is “C (0.1 or more and less than 0.3)”. Moreover, in data set [4], the “Maximum molar absorption coefficient” value is “B (50,000 or more and less than 100,000)”.
`C=C[Si]1(C)C2=C/C(=N/C)C=CC2=C(c2c(F)cc(C(=O)NCCOCCOCCOCCOCCC(=O)O)cc2F)c2ccc(NC)cc21` (stereo not shown) [Compound (9)] came in with a solubility at 30 min in data set [1] of 10 to 100 µM (≈ 6.96 to 69.6 µg/mL). Moreover, the Light resistance entry in data set [2] is reported as “A (100 hours or more)”. For the same compound, the Fluorescence quantum yield entry in data set [3] was “B (0.3 or more and less than 0.5)”. Besides, the “Maximum molar absorption coefficient” value in data set [4] is recorded as “A (100,000 or more)”.
On to `C=C[Si]1(C)C2=CC(=[N+]3CC(F)C3)C=CC2=C(c2c(OC)cc(C(=O)[O-])cc2OC)c2ccc(N3CC(F)C3)cc21` (stereo not shown) [Compound (13)], for which, in data set [1], the solubility at 30 min was 1 to 10 µM (≈ 0.561 to 5.61 µg/mL). Moreover, the Fluorescence quantum yield result in data set [3] was “A (0.5 or more)”. For the same compound, the “Maximum molar absorption coefficient” value in data set [4] is “B (50,000 or more and less than 100,000)”.
Compound `C=C[Si]1(C)C2=C/C(=[N+]3\CCC(F)C3)C=CC2=C(c2c(OC)cc(C(=O)[O-])cc2OC)c2ccc(N3CCC(F)C3)cc21` (stereo not shown) [Compound (14)] returned a solubility at 30 min in data set [1] of 1 to 10 µM (≈ 0.589 to 5.89 µg/mL). Moreover, the Fluorescence quantum yield result in data set [3] is listed as “A (0.5 or more)”. Besides, in data set [4], the “Maximum molar absorption coefficient” value is “B (50,000 or more and less than 100,000)”.
The compound `C=C[Si]1(C)C2=C/C(=[N+](\C)CC(F)(F)F)C=CC2=C(c2c(OC)cc(C(=O)[O-])cc2OC)c2ccc(N(C)CC(F)(F)F)cc21` (stereo not shown) [Compound (15)] returned a solubility at 30 min in data set [1] of 1 to 10 µM (≈ 0.637 to 6.37 µg/mL). Further, in data set [3], the Fluorescence quantum yield entry was “A (0.5 or more)” and the “Fluorescence quantum yield (comparison in words)” value is “exhibits a better fluorescence quantum yield as compared with the compound (4)”. Further, in data set [4], the “Maximum molar absorption coefficient” value was “C (10,000 or more and less than 50,000)”.
AlexaFluor647: the Water solubility entry in data set [1] is given as “A (100 μM or more)”. Besides, the Light resistance result in data set [2] was “D (2 hours or more and less than 25 hours)”. Moreover, the Fluorescence quantum yield result in data set [3] is “B (0.3 or more and less than 0.5)”. Also, in data set [4], the “Maximum molar absorption coefficient” value is listed as “A (100,000 or more)”.
